Results: patent publication US4181714A (priority 1977, dated 1980)

Tests used:
[1] = tested on: Colletotrichum lagenarium; assay: Test on control effect on anthracnose in cucumber; type: in vivo; conditions: 1000 ppm in sprayed composition
Procedure: Cucumber seedlings (Sagami Hanpaku variety) planted one plant per pot were used for the test, and each test area included three pots. After seeding was carried out by using Kureha Soil, the pots were kept for 2 weeks in an air-conditioned green house (maximum daytime temperature=28° C., minimum night temperature=20° C., light illumination time=12 hours per day, light source=sunglow lamp) to grow the cucumber plants.
A chemical composition having a predetermined concentration, which was prepared according to the method described in Example 3 was sprayed on the plants by a spray gun and the plants were air-dried for 2 hours in a green house.
Spores of a pathogenic fungus causing anthracnose in cucumber (Colletotrichum lagenarium), which had been cultured for 10 days at 23° C. in an agar slant culture medium of sweet corn, were taken into sterilized water, and one drop of a spreader was added to 50 cc of the spore suspension. In an inoculation box, the spore suspension was sprayed on the plants in an amount of 50 cc per 50 seedling by a spray gun to effect inoculation. […]
The total number of disease spots on leaves of the plants of each area was counted and the control value was calculated according to the following formula: [formula]

plants = assay: Phytotoxicity (general statement); type: in vivo
Pyricularia oryzae = type: in vivo; conditions: blast of rice, 20 ppm in sprayed dilution
blast of rice = conditions: commercially available antibiotic chemical; cited from earlier work

Molecule	Control Value [1] [%]	Phytotoxicity (plants)	Control Value (Pyricularia oryzae) [%]	Specificity of controlling effect (blast of rice)
manganous ethylene1,2-bis-dithiocarbomate- [Maneb-Dithane]	95	causes phytotoxicity	–	–
CN(CC[C@H](N)CC(=O)N[C@H]1C=C[C@H](n2ccc(N)nc2=O)O[C@@H]1C(=O)O)C(=N)N [Blasticidin S, blasticidinS-benzylaminobenzene-sulfonate]	–	–	95	specific effect on blast of rice alone
